Assay results as given in US20240316017A1, “NOVEL PYRIDINE DERIVATIVE COMPOUND AS RON INHIBITOR” (LG CHEM, LTD., priority 2021, published 2024).
pIC50: −log10 of the molar value.

Tests used:
[1] = molecular target: RON (Homo sapiens, UniProt Q04912); test: Evaluation of inhibitory activity against RON (TR-FRET kinase assay); assay type: biochemical; conditions: RON protein, ULight-labeled Poly GT substrate
Description: In order to measure the inhibitory activity of each of the compounds of Examples against RON, the IC50 of each of the compounds was measured using Time-resolved fluorescence energy transfer (TR-FRET).
(§1) Specifically, the compound was prepared to a concentration of 1 mM in 100% DMSO and was diluted 10 times in a stepwise manner through 3-fold dilution. The compound (2 ul) diluted in a stepwise manner was added to a 96-well-plate containing 48 ul of a 1× kinase reaction buffer (50 mM HEPES (pH 7.4), 0.01% Tween-20, 5 mM DTT, 0.5 mM Na3VO4, 2 mM EGTA, 10 mM MgCl2).
The RON protein was diluted to a concentration of 49.3 nM in a RON storage buffer (50 mM Tris-HCl (pH 7.5), 150 mM NaCl, 0.5 mM EDTA, 0.02% Triton X-100), and then diluted again to a concentration of 0.4 nM in a 1×kinase reaction buffer. As a substrate cocktail, a RON-specific substrate mixed solution (40 uM ULight-labeled Poly GT, 100 nM ATP) was prepared at a concentration 2 times the final reaction concentration.
(§2) Thereafter, a 384-well-plate was prepared, and 2.5 μl of each of the diluted compounds of Examples was added to a corresponding well of experimental group wells, and 2.5 μl of a 4% DMSO solution was dispensed into high control wells and low control wells.
(§3) Thereafter, 2.5 μL of 0.4 nM RON was dispensed into each of the high control wells and the experimental group wells, and 2.5 μL of the 1× kinase reaction buffer was added to the low control wells, and all the wells were centrifuged at room temperature for 40 seconds at 1,000 RPM, and then incubated at room temperature for 20-30 minutes. Then, 5 uL of the substrate cocktail (2×) was dispensed into each well, and all the wells were centrifuged at room temperature for 40 seconds at 1,000 RPM, and then incubated at room temperature for 60 minutes. Thereafter, 5 uL of 30 mM EDTA was added to each well to terminate the reaction, and all the wells were then incubated again at room temperature for 5 minutes. Thereafter, 5 uL of a 4× phosphotyrosine antibody (Perkin Elmer) containing europium was added to each well, and all the wells were then incubated at room temperature for 60 minutes. After the incubation, the 384-well-plate was read with the Vison plate reader. In this case, the excitation wavelength was 340 nm, and the emission wavelength was 620 nm and 665 nm. The IC50 value of each compound of Examples was derived using the GraphPd Prism7 program.

[2] = molecular target: cMET (Homo sapiens, UniProt P08581); test: Evaluation of inhibitory activity against MET (TR-FRET kinase assay); assay type: biochemical; conditions: cMET protein, TK peptide substrate
Sequence of cMET (P08581 25-1390): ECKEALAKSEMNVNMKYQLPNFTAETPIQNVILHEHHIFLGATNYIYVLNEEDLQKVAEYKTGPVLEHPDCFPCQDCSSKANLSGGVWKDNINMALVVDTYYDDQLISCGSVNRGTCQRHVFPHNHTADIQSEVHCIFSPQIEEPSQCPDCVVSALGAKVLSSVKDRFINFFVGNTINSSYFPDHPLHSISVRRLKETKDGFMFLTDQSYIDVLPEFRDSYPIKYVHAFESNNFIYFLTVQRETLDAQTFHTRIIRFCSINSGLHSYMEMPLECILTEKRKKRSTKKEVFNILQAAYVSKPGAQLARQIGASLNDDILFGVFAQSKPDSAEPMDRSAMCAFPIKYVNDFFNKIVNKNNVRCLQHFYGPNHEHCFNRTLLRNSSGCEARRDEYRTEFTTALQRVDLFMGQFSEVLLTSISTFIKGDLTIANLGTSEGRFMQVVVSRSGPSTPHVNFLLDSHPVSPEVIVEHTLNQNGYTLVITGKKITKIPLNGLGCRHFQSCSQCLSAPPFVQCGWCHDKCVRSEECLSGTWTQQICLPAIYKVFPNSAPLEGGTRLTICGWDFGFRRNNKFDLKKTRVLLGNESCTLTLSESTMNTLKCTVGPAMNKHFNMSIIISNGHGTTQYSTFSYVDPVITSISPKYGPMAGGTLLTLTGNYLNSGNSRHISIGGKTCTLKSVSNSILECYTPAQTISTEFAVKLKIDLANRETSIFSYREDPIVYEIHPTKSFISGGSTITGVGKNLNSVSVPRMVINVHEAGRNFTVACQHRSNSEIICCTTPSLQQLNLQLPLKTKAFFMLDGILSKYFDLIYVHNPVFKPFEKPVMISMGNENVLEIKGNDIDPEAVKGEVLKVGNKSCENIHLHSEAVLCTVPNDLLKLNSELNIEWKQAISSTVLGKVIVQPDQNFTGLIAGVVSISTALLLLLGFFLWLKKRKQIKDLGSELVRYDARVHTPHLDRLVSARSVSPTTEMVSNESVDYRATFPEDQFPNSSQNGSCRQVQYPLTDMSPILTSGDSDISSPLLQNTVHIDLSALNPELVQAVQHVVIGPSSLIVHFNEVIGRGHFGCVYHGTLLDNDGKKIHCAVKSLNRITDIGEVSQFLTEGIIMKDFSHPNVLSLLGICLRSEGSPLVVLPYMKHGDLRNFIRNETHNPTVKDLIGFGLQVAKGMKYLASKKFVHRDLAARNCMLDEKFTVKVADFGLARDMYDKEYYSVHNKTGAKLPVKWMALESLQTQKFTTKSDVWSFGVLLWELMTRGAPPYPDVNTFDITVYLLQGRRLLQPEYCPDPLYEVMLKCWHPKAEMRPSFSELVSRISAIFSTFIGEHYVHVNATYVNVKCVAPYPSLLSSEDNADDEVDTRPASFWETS
Description: In addition, in order to measure the enzyme activity inhibition for cMET, the evaluation was performed in the same manner as the enzyme activity inhibition measurement experiment for RON.
as §1, with “7.4), 0.05% BSA, 0.005%” for “7.4), 0.01%”, “Tween-20, 1” for “Tween-20, 5”, “mM MnCl2, 20” for “mM Na3VO4, 2 mM EGTA, 10”
The cMET protein was diluted to a concentration of 263 nM in a cMET storage buffer (50 mM Tris-HCl (pH 7.5), 150 mM NaCl, 0.05% Brij35, 1 mM DTT, 10% Glycerol), and then diluted again to a concentration of 2 nM in a 1× kinase reaction buffer. As a substrate cocktail, a MET-specific substrate mixed solution (5 uM TK peptide, 10 mM ATP) was prepared at a concentration 2 times the final reaction concentration.
as §2
as §3, with “of 2” for “of 0.4”, “nM cMET” for “nM RON”, “the 1×kinase” for “the 1× kinase”, “of 90” for “of 30”

Sequence of RON (Q04912 25-1400, species assumed): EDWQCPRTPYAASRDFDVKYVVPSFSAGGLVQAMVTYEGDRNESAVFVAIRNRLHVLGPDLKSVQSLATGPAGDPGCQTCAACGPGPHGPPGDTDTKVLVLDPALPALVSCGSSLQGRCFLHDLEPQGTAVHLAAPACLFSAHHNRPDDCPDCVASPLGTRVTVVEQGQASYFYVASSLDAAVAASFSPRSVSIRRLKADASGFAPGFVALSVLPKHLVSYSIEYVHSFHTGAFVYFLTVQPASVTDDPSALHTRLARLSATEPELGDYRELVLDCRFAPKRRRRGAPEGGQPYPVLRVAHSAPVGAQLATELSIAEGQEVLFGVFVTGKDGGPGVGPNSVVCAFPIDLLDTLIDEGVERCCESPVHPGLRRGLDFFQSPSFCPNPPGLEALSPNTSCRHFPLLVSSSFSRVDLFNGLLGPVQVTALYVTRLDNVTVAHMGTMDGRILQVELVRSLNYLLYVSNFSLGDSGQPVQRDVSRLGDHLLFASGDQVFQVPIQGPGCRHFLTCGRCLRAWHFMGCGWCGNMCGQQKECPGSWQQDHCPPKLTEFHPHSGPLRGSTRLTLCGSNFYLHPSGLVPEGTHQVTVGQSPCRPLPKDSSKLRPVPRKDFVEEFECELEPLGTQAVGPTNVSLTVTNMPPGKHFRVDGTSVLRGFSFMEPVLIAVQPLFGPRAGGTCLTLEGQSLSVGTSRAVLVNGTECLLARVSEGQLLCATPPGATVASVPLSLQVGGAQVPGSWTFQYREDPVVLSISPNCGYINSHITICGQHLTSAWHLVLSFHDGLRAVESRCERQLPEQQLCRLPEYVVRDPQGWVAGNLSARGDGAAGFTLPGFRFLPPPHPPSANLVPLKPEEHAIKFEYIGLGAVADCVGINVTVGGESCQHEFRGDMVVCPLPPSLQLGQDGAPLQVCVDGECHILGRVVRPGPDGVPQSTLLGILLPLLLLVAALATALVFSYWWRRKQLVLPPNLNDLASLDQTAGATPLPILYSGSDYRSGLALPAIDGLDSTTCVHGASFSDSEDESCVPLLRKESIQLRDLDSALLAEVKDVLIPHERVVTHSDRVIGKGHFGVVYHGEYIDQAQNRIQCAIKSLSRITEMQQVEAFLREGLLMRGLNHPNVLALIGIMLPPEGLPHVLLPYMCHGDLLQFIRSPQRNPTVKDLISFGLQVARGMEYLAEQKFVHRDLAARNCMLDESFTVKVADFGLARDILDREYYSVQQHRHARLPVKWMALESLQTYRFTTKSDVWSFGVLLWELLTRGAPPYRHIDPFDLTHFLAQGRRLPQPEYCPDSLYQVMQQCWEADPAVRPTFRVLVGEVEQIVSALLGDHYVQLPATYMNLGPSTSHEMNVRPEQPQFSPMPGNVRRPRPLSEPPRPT

Structure (SMILES) | pIC50 [1] | pIC50 [2]
Nc1ncnc(Oc2ccc(NC(=O)c3cn(-c4ccccc4)nn3)cc2F)c1Cl [Example 54, N-[4-(6-amino-5-chloro-pyrimidin-4-yl)oxy-3-fluorophenyl]-1-phenyl-triazole-4-carboxamide] | < 5.30 | < 5.30
Cc1nc(C(=O)Nc2ccc(Oc3ccnc(N)c3Cl)c(F)c2)c(C)n1-c1ccccc1 [Example 14, N-(4-((2-amino-3-chloropyridin-4-yl)oxy)-3-fluorophenyl)-2,5-dimethyl-1-phenyl-1H-imidazole-4-carboxamide] | 6.30 to 7.30 | 5.30 to 6.30
C=CC(=O)N(C(=O)C=C)c1nccc(Oc2ccc(NC(=O)c3ncn(-c4ccccc4)c3C(F)(F)F)cc2F)c1Cl [Example 22] | 6.30 to 7.30 | < 5.30
Nc1ncnc(Oc2ccc(NC(=O)c3cnn(-c4ccccc4)c3-c3ccccc3)cc2F)c1Cl [Example 59, N-[4-(6-amino-5-chloro-pyrimidin-4-yl)oxy-3-fluorophenyl]-1,5-diphenyl-pyrazole-4-carboxamide] | 6.30 to 7.30 | 5.30 to 6.30
Cc1nn(-c2ccccc2)c(C)c1C(=O)Nc1ccc(Oc2ccnc(N)c2Cl)c(F)c1 [Example 4, N-(4-((2-amino-3-chloropyridin-4-yl)oxy)-3-fluorophenyl)-3,5-dimethyl-1-phenyl-1H-pyrazole-4-carboxamide] | 6.30 to 7.30 | < 5.30
Cc1nn(-c2ccccc2)c(C)c1C(=O)Nc1ccc(Oc2ncnc(N)c2Cl)c(F)c1 [Example 48, N-(4-((6-amino-5-chloro-pyrimidin-4-yl)oxy)-3-fluorophenyl)-3,5-dimethyl-1-phenyl-1H-pyrazole-4-carboxamide] | 6.30 to 7.30 | < 5.30
Nc1nccc(Oc2ccc(NC(=O)c3cnn(-c4ccccc4)c3C(F)(F)F)c(F)c2)c1Cl [Example 45, N-(4-((2-amino-3-chloropyridin-4-yl)oxy)-2-fluorophenyl)-1-phenyl-5-(trifluoromethyl)-1H-pyrazole-4-carboxamide] | 6.30 to 7.30 | < 5.30
Nc1nccc(Oc2ccc(NC(=O)c3ccc(-c4ccccc4)s3)cc2F)c1Cl [Example 33, N-(4-((2-amino-3-chloropyridin-4-yl)oxy)-3-fluorophenyl)-5-phenylthiophene-2-carboxamide] | 6.30 to 7.30 | < 5.30
Nc1nccc(Oc2ccc(NC(=O)c3cnn(-c4ccccc4)c3-c3ccccc3)cc2F)c1Cl [Example 19, N-(4-((2-amino-3-chloropyridin-4-yl)oxy)-3-fluorophenyl)-1,5-diphenyl-1H-pyrazole-4-carboxamide] | 6.30 to 7.30 | 5.30 to 6.30
Nc1nccc(Oc2ccc(NC(=O)c3cnn(-c4ccc(F)cc4)c3C(F)(F)F)cc2F)c1Cl [Example 11, N-(4-((2-amino-3-chloropyridin-4-yl)oxy)-3-fluorophenyl)-1-(4-fluorophenyl)-5-(trifluoromethyl)-1H-pyrazole-4-carboxamide] | 5.30 to 6.30 | < 5.30
Nc1nccc(Oc2ccc(NC(=O)c3ncn(-c4ccccc4)c3C(F)(F)F)cc2F)c1Cl [Example 1, N-(4-((2-amino-3-chloropyridin-4-yl)oxy)-3-fluorophenyl)-1-phenyl-5-(trifluoromethyl)-1H-imidazole-4-carboxamide] | > 7.30 | 5.30 to 6.30
Nc1ncnc(Oc2ccc(NC(=O)c3ccn(-c4ccccc4)n3)cc2F)c1Cl [Example 53, N-[4-(6-amino-5-chloro-pyrimidin-4-yl)oxy-3-fluorophenyl]-1-phenyl-pyrazole-3-carboxamide] | 5.30 to 6.30 | < 5.30
Nc1nccc(Oc2ccc(NC(=O)c3cnn(-c4ccccc4)c3C(F)(F)F)cc2F)c1N [Example 28] | 6.30 to 7.30 | < 5.30
C=CC(=O)Nc1nccc(Oc2ccc(NC(=O)c3ncn(-c4ccccc4)c3C(F)(F)F)cc2F)c1Cl [Example 21] | 6.30 to 7.30 | < 5.30
Nc1nccc(Oc2ccc(NC(=O)c3cnn(Cc4ccccc4)c3C(F)(F)F)cc2F)c1Cl [Example 13, N-(4-((2-amino-3-chloropyridin-4-yl)oxy)-3-fluorophenyl)-1-benzyl-5-(trifluoromethyl)-1H-pyrazole-4-carboxamide] | 5.30 to 6.30 | 5.30 to 6.30
Nc1nccc(Oc2ccc(NC(=O)c3cnn(-c4ccccc4)c3Cl)cc2F)c1Cl [Example 18, N-(4-((2-amino-3-chloropyridin-4-yl)oxy)-3-fluorophenyl)-5-chloro-1-phenyl-1H-pyrazole-4-carboxamide] | 6.30 to 7.30 | 5.30 to 6.30
Nc1nccc(Oc2ccc(NC(=O)c3cnn(-c4ccccc4)c3N)cc2F)c1Cl [Example 10, 5-amino-N-(4-((2-amino-3-chloropyridin-4-yl)oxy)-3-fluorophenyl)-1-phenyl-1H-pyrazole-4-carboxamide] | 5.30 to 6.30 | < 5.30

The next lines start with the values.

pIC50 [1] | pIC50 [2] | Structure (SMILES)
6.30 to 7.30 | 5.30 to 6.30 | CC(C)(C)n1ncc(C(=O)Nc2ccc(Oc3ccnc(N)c3Cl)c(F)c2)c1C(F)(F)F [Example 17, N-(4-((2-amino-3-chloropyridin-4-yl)oxy)-3-fluorophenyl)-1-(tert-butyl)-5-(trifluoromethyl)-1H-pyrazole-4-carboxamide]
6.30 to 7.30 | < 5.30 | Nc1ncnc(Oc2ccc(NC(=O)c3cnn(C4CCCCC4)c3C(F)(F)F)cc2F)c1Cl [Example 51]
< 5.30 | < 5.30 | O=C(Nc1ccc(Oc2ncnc(NC3CC3)c2Cl)c(F)c1)c1cnn(-c2ccccc2)c1C(F)(F)F [Example 62, N-(4-((5-chloro-6-(cyclopropylamino)pyrimidin-4-yl)oxy)-3-fluorophenyl)-1-phenyl-5-(trifluoromethyl)-1H-pyrazole-4-carboxamide]
> 7.30 | 5.30 to 6.30 | Nc1nccc(Oc2ccc(NC(=O)c3cnn(-c4ccccc4)c3C(F)(F)F)cc2F)c1Cl [Example 2, N-(4-((2-amino-3-chloropyridin-4-yl)oxy)-3-fluorophenyl)-1-phenyl-5-(trifluoromethyl)-1H-pyrazole-4-carboxamide]
6.30 to 7.30 | 5.30 to 6.30 | Nc1nccc(Oc2ccc(NC(=O)c3cnn(-c4ccccc4Cl)c3C(F)(F)F)cc2F)c1Cl [Example 36, N-(4-((2-amino-3-chloropyridin-4-yl)oxy)-3-fluorophenyl)-1-(2-chlorophenyl)-5-(trifluoromethyl)-1H-pyrazole-4-carboxamide]
< 5.30 | < 5.30 | Cc1ccc(-n2ncc(C(=O)Nc3ccc(Oc4ncnc(N)c4Cl)c(F)c3)c2C(F)(F)F)cc1 [Example 49]
5.30 to 6.30 | < 5.30 | CN1CCCC(n2ncc(C(=O)Nc3ccc(Oc4ncnc(N)c4Cl)c(F)c3)c2C(F)(F)F)C1 (stereo not drawn) [Example 60, N-[4-(6-amino-5-chloro-pyrimidin-4-yl)oxy-3-fluorophenyl]-1-(1-methyl-3-piperidyl)-5-(trifluoromethyl)pyrazole-4-carboxamide]
